Consider 6 compounds from ChEMBL document CHEMBL1201862, “PubChem BioAssay data set” (2004).

Calls of active or inactive are those of the source.

For data set [1], the system named is BJ. Briefly: cytotoxicity toward BJ-TERT-LT-ST fibroblasts, dose response, cell-based, RAS-independent, luminescence (AID 1935).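 Also: BJ fibroblasts immortalized with TERT plus LT and ST oncogenes.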 In kind it is functional. As to conditions: Homo sapiens.
The target of data set [2] is T1, Type-1 angiotensin II receptor (Homo sapiens, UniProt P30556).
T1 sequence (P30556 whole entry): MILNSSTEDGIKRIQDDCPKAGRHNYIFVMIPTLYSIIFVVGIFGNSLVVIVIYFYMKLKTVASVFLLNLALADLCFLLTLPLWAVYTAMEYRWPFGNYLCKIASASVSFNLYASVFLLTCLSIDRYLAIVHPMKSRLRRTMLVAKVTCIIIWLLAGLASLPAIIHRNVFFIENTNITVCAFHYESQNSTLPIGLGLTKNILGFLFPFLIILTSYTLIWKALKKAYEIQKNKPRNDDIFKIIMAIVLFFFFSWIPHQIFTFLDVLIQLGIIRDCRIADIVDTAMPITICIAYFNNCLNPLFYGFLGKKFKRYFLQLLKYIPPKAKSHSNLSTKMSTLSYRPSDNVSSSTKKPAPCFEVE
Kind of data set: AT1 receptor antagonists, dose response, selectivity assay for APJ receptor antagonist project, cell-based, uHTS hits (AID 463214).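 Also: antagonist potency against angiotensin II stimulated AT1 response.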 It counts as functional.

The target of data set [3] is T2, Alkaline phosphatase, tissue-nonspecific isozyme (Homo sapiens, UniProt P05186).
T2 sequence (P05186 whole entry): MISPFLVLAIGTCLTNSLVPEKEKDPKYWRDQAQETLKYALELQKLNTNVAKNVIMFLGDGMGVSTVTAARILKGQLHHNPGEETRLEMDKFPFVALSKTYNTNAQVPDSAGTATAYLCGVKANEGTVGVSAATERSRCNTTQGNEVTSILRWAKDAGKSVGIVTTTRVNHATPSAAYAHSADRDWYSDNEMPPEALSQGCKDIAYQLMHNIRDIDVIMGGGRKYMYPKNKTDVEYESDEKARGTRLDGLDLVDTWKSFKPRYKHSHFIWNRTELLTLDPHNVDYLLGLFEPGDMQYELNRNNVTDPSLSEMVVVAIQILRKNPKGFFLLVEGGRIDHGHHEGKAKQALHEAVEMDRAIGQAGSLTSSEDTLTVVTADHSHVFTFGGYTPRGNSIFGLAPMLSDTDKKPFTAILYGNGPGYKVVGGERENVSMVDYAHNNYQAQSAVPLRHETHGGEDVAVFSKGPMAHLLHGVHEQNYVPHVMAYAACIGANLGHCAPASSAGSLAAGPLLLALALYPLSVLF
Briefly: inhibition of tissue-nonspecific alkaline phosphatase – biochemical, dose response (AID 488882). It counts as functional.

Data set [4] is described as follows: cytotoxicity toward DRD oncogenic fibroblasts, dose response, cell-based, non-viral oncogenic, luminescence (AID 1934). In kind it is functional. The note with it: Homo sapiens.
For data set [5], the target named is T3, Intestinal-type alkaline phosphatase (Homo sapiens, UniProt P09923). Kind of data set: Dose Response confirmation of uHTS hits from a small molecule inhibitors of human intestinal alkaline phosphatase via a luminescent assay. [Related pubchem assays (depositor defined):AID2544, AID2574]. In kind it is functional.
T3 sequence (P09923 whole entry): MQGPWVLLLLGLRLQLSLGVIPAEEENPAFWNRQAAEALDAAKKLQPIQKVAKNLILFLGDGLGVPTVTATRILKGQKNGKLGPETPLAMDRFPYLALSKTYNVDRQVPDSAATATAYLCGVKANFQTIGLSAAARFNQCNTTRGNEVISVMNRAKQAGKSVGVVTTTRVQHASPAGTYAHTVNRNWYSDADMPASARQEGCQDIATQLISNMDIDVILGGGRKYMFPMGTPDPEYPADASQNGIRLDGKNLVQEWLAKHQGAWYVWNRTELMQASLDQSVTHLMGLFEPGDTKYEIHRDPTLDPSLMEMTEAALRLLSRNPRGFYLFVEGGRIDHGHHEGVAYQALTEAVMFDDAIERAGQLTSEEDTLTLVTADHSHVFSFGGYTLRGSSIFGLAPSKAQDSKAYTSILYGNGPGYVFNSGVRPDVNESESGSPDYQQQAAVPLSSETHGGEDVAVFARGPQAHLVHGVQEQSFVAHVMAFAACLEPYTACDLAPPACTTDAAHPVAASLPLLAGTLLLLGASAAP
In data set [6] the test system is BJ. Briefly: cells. In kind it is functional, cell-based. As to conditions: Homo sapiens.
A further data set deals with Beta-galactosidase (Escherichia coli, UniProt Q8VNN2). Briefly: PubChem AID 485352. In kind it is functional.
Chain of Beta-galactosidase (Q8VNN2 whole entry): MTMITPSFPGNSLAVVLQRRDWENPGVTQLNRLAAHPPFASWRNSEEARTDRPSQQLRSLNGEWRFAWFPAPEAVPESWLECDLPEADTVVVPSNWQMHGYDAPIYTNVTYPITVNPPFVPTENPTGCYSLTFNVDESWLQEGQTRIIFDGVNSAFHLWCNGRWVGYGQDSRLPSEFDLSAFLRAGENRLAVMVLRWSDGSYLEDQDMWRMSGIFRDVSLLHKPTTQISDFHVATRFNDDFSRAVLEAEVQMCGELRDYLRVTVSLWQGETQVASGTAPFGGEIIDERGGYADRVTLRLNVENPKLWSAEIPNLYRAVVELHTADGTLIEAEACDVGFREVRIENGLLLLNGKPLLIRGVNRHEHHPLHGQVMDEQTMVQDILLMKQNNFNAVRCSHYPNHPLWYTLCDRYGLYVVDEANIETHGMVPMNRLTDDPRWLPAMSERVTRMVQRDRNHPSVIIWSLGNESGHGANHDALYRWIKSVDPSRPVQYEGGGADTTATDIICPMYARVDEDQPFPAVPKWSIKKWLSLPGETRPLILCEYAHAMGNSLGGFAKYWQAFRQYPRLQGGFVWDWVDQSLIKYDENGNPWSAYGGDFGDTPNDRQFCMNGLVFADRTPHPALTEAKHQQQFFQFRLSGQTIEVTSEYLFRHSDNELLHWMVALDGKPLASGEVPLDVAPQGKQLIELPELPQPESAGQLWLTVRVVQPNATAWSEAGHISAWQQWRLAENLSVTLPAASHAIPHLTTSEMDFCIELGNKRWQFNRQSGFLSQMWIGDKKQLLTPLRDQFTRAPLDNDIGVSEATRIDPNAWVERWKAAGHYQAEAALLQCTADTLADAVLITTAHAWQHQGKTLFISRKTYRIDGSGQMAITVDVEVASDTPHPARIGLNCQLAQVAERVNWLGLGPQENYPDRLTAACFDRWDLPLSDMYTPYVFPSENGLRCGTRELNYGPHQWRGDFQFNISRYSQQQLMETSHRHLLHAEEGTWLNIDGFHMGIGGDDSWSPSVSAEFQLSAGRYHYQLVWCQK
Data set [7] has as its target Intestinal-type alkaline phosphatase (Mus musculus, UniProt P24822). Briefly: PubChem AID 488874. In kind it is functional.
Data set [8] deals with BJ. Briefly: cytotoxicity toward BJ-TERT fibroblasts, dose response, cell-based, RAS-independent, luminescence (AID 1933). It counts as functional. As to conditions: Homo sapiens.
For data set [9], the target named is T3, Intestinal-type alkaline phosphatase. Kind of data set: human IAP inhibitors, dose response, biochemical, luminescent, uHTS hits, set 2 (AID 488793). It counts as functional.
For data set [10], the target named is G-protein coupled receptor 55 (Homo sapiens, UniProt Q9Y2T6). Briefly: GPR55 agonists via beta-arrestin recruitment, primary screen, imaging, U2OS cells, beta-arrestin-GFP redistribution (AID 1961). In kind it is functional.
The target in data set [11] is T4, Tyrosine-protein phosphatase non-receptor type 7 (Homo sapiens, UniProt P35236).
T4 sequence (P35236 whole entry): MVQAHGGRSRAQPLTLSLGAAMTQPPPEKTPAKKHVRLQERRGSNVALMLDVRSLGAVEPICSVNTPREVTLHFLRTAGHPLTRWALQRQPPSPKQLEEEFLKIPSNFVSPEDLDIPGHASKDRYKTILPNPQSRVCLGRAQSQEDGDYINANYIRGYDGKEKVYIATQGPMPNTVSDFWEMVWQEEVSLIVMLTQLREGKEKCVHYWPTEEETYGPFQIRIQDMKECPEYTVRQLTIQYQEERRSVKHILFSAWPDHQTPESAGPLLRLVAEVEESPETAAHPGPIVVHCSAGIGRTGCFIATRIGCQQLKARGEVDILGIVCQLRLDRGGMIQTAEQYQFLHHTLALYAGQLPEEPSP
It counts as functional.

Data set [12] concerns the target T5, Dual specificity protein phosphatase 6 (Rattus norvegicus, UniProt Q64346).
T5 sequence (Q64346 whole entry): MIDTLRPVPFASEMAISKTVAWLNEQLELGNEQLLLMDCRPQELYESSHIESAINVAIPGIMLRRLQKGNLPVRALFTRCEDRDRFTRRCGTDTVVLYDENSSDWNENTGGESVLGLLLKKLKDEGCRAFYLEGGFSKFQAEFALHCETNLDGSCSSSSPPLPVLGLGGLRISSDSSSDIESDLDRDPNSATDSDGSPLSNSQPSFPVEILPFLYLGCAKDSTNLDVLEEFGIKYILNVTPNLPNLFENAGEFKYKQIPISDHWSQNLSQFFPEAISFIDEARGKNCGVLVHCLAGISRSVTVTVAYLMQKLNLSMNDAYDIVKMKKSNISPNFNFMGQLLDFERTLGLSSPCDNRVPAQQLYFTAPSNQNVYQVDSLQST

In data set [13] the target is Glyceraldehyde-3-phosphate dehydrogenase (Homo sapiens, UniProt P04406).
Data set [14] has as its target T5, Dual specificity protein phosphatase 6. It counts as functional.
In the next data set the target is Cytochrome P450 3A4 (Homo sapiens, UniProt P08684).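 Also: CYP3A4 tested as one member of a cytochrome P450 panel screen.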
Chain of Cytochrome P450 3A4 (P08684 whole entry): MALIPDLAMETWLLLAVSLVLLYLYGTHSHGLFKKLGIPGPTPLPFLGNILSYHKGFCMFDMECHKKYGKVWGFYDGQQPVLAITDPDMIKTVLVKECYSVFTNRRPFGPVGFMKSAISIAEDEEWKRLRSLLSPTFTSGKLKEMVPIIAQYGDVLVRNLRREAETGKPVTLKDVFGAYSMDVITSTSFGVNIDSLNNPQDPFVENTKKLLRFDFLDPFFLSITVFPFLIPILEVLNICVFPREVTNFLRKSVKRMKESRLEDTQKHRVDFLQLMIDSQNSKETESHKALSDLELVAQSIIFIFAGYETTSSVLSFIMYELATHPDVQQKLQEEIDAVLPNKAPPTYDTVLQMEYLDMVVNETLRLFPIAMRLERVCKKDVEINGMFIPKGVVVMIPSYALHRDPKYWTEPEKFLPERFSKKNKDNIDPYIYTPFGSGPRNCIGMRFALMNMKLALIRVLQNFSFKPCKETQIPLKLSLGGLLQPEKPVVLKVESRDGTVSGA
The target of a further data set is Cytochrome P450 2C19 (Homo sapiens, UniProt P33261). Briefly: Cytochrome panel assay with activity outcomes. Panel member name: p450-cyp2c19 Compounds with AC50 equal or less than 10 uM are considered active. As to conditions: read-out: AC50. It counts as functional.
Chain of Cytochrome P450 2C19 (P33261 whole entry): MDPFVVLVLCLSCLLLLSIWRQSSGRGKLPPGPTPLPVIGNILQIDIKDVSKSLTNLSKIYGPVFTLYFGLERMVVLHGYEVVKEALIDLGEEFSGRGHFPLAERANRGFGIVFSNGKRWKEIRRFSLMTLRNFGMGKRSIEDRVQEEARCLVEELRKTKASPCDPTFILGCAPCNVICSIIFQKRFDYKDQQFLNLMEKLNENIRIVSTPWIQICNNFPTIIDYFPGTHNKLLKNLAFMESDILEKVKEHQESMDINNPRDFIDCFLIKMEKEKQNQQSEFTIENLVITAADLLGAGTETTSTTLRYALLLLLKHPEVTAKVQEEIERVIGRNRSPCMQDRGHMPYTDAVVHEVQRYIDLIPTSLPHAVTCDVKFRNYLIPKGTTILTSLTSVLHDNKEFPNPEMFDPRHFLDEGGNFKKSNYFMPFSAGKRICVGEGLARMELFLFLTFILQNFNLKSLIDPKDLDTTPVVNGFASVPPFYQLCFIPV
The target of another data set is Keap1/Nrf2 (Homo sapiens, UniProt Q14145). Kind of data set: Keap1-Nrf2 protein-protein interaction inhibitors, dose response, biochemical, fluorescence polarization, cherry-picked samples (AID 588683). A general note: In fluorescence polarisation assays a small probe gives low polarisation when free and higher when bound to something large.
Chain of Keap1/Nrf2 (Q16236 whole entry): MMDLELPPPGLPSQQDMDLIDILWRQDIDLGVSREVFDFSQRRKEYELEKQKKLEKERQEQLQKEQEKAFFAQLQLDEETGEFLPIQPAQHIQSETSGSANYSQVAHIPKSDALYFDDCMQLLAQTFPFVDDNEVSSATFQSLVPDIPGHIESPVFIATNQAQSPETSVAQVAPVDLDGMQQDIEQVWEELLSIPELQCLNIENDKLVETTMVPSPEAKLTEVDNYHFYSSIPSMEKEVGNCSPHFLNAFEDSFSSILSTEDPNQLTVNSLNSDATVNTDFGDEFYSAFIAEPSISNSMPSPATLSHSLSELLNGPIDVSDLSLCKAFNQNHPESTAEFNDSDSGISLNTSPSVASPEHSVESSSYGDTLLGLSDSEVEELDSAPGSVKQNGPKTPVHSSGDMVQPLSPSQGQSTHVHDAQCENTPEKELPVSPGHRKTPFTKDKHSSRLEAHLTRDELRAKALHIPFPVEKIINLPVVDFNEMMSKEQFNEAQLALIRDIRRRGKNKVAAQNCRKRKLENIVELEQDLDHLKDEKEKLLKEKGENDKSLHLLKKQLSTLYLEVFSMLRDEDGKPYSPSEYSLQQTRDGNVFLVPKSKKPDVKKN
Chain of Keap1/Nrf2 (Q14145 whole entry): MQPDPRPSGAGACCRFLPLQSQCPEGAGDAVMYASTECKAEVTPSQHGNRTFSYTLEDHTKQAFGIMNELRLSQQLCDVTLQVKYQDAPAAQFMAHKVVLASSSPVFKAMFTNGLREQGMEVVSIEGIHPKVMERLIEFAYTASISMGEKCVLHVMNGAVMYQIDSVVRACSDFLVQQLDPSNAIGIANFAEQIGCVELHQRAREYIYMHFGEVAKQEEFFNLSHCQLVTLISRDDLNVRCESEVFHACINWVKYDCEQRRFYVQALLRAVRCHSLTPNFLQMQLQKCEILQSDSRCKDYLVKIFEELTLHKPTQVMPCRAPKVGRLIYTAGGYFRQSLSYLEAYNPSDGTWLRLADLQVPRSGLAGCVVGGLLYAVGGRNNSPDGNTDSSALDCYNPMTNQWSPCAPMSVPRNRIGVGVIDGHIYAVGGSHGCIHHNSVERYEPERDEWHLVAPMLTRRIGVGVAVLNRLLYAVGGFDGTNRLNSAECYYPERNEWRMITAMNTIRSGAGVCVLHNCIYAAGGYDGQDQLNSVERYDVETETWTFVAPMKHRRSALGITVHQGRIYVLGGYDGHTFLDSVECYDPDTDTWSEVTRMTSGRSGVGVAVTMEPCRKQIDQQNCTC
Another data set concerns the target Cytochrome P450 2D6 (Homo sapiens, UniProt P10635).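 Also: CYP2D6 member of a cytochrome P450 panel assay.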
The target in a further data set is Melanocortin receptor 4 (Homo sapiens, UniProt P32245). In kind it is functional, cell-based.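 Also: Cell-based assay with luminescence read-out, confirmatory dose-response testing for agonist activity of biased ligands at MC4R; human U2OS cells with tagged receptor and beta-arrestin; potency of agonists that increase receptor coupling to beta-arrestin.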
The target of data set [15] is Acyl-homoserine lactone acylase PvdQ (Pseudomonas aeruginosa (strain LESB58), UniProt Q9I194). Kind of data set: P. aeruginosa PvdQ acylase inhibitors, dose response, biochemical, fluorescence, plate reader and imaging, cherry-picks (AID 493231).
Another data set concerns HeLa. Kind of data set: HeLa cell cytotoxicity, dose response, cytotoxicity control, 48 h, plate reader, cherry-picks (AID 504942). It counts as functional, cell-based. The note with it: Homo sapiens.

Chain of Intestinal-type alkaline phosphatase (Mus musculus, UniProt P24822) (P24822 whole entry): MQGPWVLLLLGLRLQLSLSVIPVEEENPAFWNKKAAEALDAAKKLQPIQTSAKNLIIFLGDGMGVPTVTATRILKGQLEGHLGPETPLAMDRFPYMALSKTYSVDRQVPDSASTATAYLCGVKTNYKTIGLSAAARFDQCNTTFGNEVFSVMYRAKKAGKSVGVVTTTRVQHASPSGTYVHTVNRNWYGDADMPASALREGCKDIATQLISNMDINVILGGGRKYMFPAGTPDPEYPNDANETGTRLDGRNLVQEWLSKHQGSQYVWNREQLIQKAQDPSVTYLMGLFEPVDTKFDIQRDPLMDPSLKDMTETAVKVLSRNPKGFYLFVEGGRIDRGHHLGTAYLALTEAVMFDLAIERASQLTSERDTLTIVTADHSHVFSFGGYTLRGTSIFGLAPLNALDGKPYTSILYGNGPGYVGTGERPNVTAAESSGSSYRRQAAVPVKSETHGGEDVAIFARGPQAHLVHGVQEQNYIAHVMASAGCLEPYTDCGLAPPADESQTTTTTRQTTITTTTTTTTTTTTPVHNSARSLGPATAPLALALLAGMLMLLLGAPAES
Chain of Cytochrome P450 2D6 (P10635 whole entry): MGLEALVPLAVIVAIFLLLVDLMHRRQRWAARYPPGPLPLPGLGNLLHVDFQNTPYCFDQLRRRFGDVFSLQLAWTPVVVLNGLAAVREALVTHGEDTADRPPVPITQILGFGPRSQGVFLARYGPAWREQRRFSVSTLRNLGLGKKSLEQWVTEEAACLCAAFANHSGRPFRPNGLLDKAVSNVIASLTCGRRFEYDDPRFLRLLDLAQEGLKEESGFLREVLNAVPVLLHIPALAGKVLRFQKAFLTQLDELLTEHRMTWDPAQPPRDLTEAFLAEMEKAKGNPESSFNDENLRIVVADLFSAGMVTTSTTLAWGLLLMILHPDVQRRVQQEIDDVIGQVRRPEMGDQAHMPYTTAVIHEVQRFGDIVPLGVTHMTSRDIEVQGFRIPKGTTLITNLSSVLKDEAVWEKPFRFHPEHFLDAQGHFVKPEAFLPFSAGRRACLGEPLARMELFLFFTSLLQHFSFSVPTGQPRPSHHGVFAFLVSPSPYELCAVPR

On to `C=CCN1C(=O)/C(=C\C=C2\N(C)c3ccccc3C2(C)C)SC1=S`, for which the EC50 in the data set with BJ [1] was > 150 µM (not active); in data set [4] it was > 150 µM (not active); in the data set with BJ [6], 42.9 µM (active); at Beta-galactosidase, > 40 µM (inactive); with BJ [8], > 150 µM (not active); in data set [10], > 32 µM (inactive). Moreover, the IC50 is > 40 µM (not active) in data set [2]; 8.19 µM (active) in [3]; 15.9 µM (inactive) in data set [5]; 33.4 µM (active) in data set [7]; 11 µM (active) in data set [9].
In the case of `Cc1ccc(O)c2c1C1C=CCC1C(C(=O)O)N2` (stereo not drawn), the IC50 is 2.63 µM (active) in data set [11], > 100 µM (inactive) in data set [12], > 100 µM (not active) in data set [13] and 86.4 µM (active) in data set [14].
For the compound `O=C(OC1CCN(c2ccc([N+](=O)[O-])cc2)CC1)c1ccccc1`, the AC50 entry at Cytochrome P450 3A4 was “inconclusive”; at Cytochrome P450 2C19 it was 0.794 µM (inconclusive).
With `CCCCOc1nc2nc(-c3ccco3)n(Cc3ccco3)c(N)c-2c1C#N`, the AC50 on Keap1/Nrf2 was > 52 µM (inactive).
As to `NC(=O)CC(c1ccccc1)c1ccco1` (stereo not drawn), the values for the AC50 entry at Cytochrome P450 2D6 and on Cytochrome P450 2C19 were “inconclusive” and 28.2 µM (inconclusive), respectively.
Turning to `Cc1ccc(O)c(C(=O)/C=C/c2ccc3c(c2)OCCO3)c1`, the EC50 at Melanocortin receptor 4 was > 89.2 µM (inactive). The AC50 in data set [15] is 1.14 µM (active); in the data set with HeLa, 73.2 µM (active).

As usually defined, the EC50 is the concentration that produces a half-maximal response. The term IC50 denotes the concentration needed to halve the response being measured. In general, AC50 refers to the midpoint of the concentration-response curve, whichever way the signal moves.
